Source: patent publication US4737506A, “Anti-arteriosclerotic pyridyl or imidazolyl derivatives of carbonyloxyalkyl hantzsch esters” (Kowa Co., Ltd., priority 1984, dated 1988)

System: thromboxane B2 (TXB2) formation
Test: Percent inhibition against thromboxane B2 (TXB2) formation in collagen-stimulated PRP from mice after oral administration (RIA)
Assay type: in vivo, ddY male mouse
Conditions: Mus musculus, blood collected 1 hour later, 12.5 μg/ml collagen, TXB2 5 minutes later; for inhibition at 30 mg/kg: 30 mg/kg oral; for inhibition at 100 mg/kg: 100 mg/kg oral
Experimental: Using a ddY male mouse having a body weight of 35-40 g, one of the representative compounds of this invention was administered orally. One hour later, citrated blood was collected. PRP (platelet-rich plasma) was separated. Aggregation of platelets by the addition of 12.5 μg/ml of collagen was observed by an aggregometer. The amount of thromboxane B2 (a stable metabolite of thromboxane A2) formed 5 minutes later in the liquid reaction mixture was measured by the RIA method. Results are shown in Table 1, in terms of percent inhibition against the formation of thromboxane B2 (TXB2).

| Compound | inhibition at 30 mg/kg | inhibition at 100 mg/kg |
| --- | --- | --- |
| COC(=O)C1=C(C)NC(C)=C(C(=O)OCCOC(=O)c2ccc(OCCn3ccnc3)cc2)C1c1cccc(Cl)c1Cl (stereo not shown) [Ex. 16, 3-Methyl 5-[2-[4-[2-(1-imidazolyl)ethoxy]-benzoyloxy]ethyl]2,6-dimethyl-4-(2,3-dichlorophenyl)-1,4-dihydropyridine-3,5-dicarboxylate] | 75% | 94% |
| COC(=O)C1=C(C)NC(C)=C(C(=O)OCCOC(=O)C=Cc2ccc(Cn3ccnc3)cc2)C1c1ccccc1F (stereo not shown) [Ex. 14, 3-Methyl 5-[2-[3-[4-(1-imidazolylmethyl)phenyl]acryloyloxy]ethyl]2,6-dimethyl-4-(2-fluorophenyl)-1,4-dihydropyridine-3,5-dicarboxylate] | 52% | 83% |
| CCOC(=O)C1=C(C)NC(C)=C(C(=O)OCCCOC(=O)c2ccc(OCCn3ccnc3)cc2)C1c1cccc([N+](=O)[O-])c1 (stereo not shown) [Ex. 6, 3-Ethyl 5-[3-[4-[2-(1-imidazolyl)ethoxyl]benzoyloxy]propyl]2,6-dimethyl-4-(3-nitrophenyl)-1,4-dihydropyridine-3,5-dicarboxylate] | 74% | 95% |
| COC(=O)C1=C(C)NC(C)=C(C(=O)OCCOC(=O)C=Cc2ccc(Cn3ccnc3)cc2)C1c1cccc([N+](=O)[O-])c1 (stereo not shown) [Ex. 8, 3-Methyl 5-[2-[3-[4-(1-imidazolylmethyl)-phenyl]acryloyloxy]ethyl]2,6-dimethyl-4-(3-nitrophenyl)-1,4-dihydropyridine-3,5-dicarboxylate] | 60% | 72% |
| CCOC(=O)C1=C(C)NC(C)=C(C(=O)OCCOC(=O)c2ccc(OCCn3ccnc3)cc2)C1c1cccc([N+](=O)[O-])c1 (stereo not shown) [Ex. 2, 3-Ethyl 5-[2-[4-[2-(1-imidazolyl)-ethoxy]-benzoyloxy]-ethyl]2,6-dimethyl-4-(3-nitrophenyl)-1,4-dihydropyridine-3,5-dicarboxylate] | 42% | 72% |
